The subject of data set [1] is Quadruplex DNA. The experiment in a line: Stabilization of G-quadruplex 5-FAM-telomeric24 DNA-TAMRA-3 (unknown origin) assessed as change in melting temperature incubated for 2 hrs by FRET assay. The format is nucleic-acid assay.
A short description of data set [2]: Cytotoxicity against human MCF-10A cells incubated for 24 hrs by CCK-8 reagent based spectrophotometric analysis. It counts as toxicity, cell-based.
In data set [3] the test system is MDA-MB-231. Put plainly: Cytotoxicity against human MDA-MB-231 cells incubated for 24 hrs by CCK-8 reagent based spectrophotometric analysis. Conditions: MDA-MB-231, 24 h. It counts as functional, cell-based. A general note: Tetrazolium assays rely on reduction of a dye to a coloured formazan, in cell work by metabolically active cells.
In data set [4] the test system is 4T1. Put plainly: Cytotoxicity against mouse 4T1 cells incubated for 24 hrs by CCK-8 reagent based spectrophotometric analysis. It counts as functional, cell-based. Conditions: 4T1, 24 h.
The subject of data set [5] is MCF7. Put plainly: Cytotoxicity against human MCF7 cells incubated for 24 hrs by CCK-8 reagent based spectrophotometric analysis. The format is functional, cell-based. Conditions: MCF7, 24 h.
Data set [6] concerns U2OS. The experiment in a line: Cytotoxicity against human U2OS cells incubated for 24 hrs by CCK-8 reagent based spectrophotometric analysis. It counts as functional, cell-based.
Data set [7] relates to BMDC. The experiment in a line: Induction of immunogenic cell death in BALB/c mouse BMDC cells co-cultured with mouse 4T1 cells assessed as increase in CD11c+ CD80+ CD86 cells maturation at 5 uM incubated for 24 hrs by flow cytometry (reference value: 69.4 %). It counts as functional. Background: A flow cytometer gives signals particle by particle.
Data set [8] has as its system 4T1. The experiment in a line: Antitumor activity against mouse 4T1 cells implanted in BALB/c mouse assessed as reduction in tumor weight at 2 mg/kg,ip every other day for 14 days. It counts as functional, organism-based. Conditions: time 14.0 day.
Data set [9] is described as follows: Toxicity in BALB/c mouse implanted with mouse 4T1 cells assessed as decrease in body weight at 2 mg/kg,ip every other day for 14 days. It counts as organism-based. As to conditions: in vivo, 336 h, time 14 day.
A short description of data set [10]: Toxicity in BALB/c mouse implanted with mouse 4T1 cells assessed as decrease in heart weight at 2 mg/kg,ip every other day for 14 days. As to conditions: in vivo, 336 h, time 14 day. It counts as organism-based.
Data set [11] is described as follows: Toxicity in BALB/c mouse implanted with mouse 4T1 cells assessed as decrease in liver weight at 2 mg/kg,ip every other day for 14 days. It counts as organism-based. As to conditions: in vivo, 336 h, time 14 day.
Data set [12] is described as follows: Toxicity in BALB/c mouse implanted with mouse 4T1 cells assessed as decrease in spleen weight at 2 mg/kg,ip every other day for 14 days. As to conditions: in vivo, 336 h, time 14 day. The format is organism-based.
Data set [13] is described as follows: Toxicity in BALB/c mouse implanted with mouse 4T1 cells assessed as decrease in lung weight at 2 mg/kg,ip every other day for 14 days. As to conditions: in vivo, 336 h, time 14 day. The format is organism-based.
The nature of data set [14]: Toxicity in BALB/c mouse implanted with mouse 4T1 cells assessed as decrease in kidney weight at 2 mg/kg,ip every other day for 14 days. As to conditions: in vivo, 336 h, time 14 day. The format is organism-based.
For data set [15], the system named is 4T1. The experiment in a line: Antitumor activity against mouse 4T1 cells implanted in BALB/c mouse assessed as damage in tumor tissue at 2 mg/kg,ip every other day for 14 days by hematoxylin and eosin staining analysis. As to conditions: time 14.0 day. It counts as functional, organism-based.
Data set [16] relates to 4T1. Put plainly: Antitumor immunity against mouse 4T1 cells implanted in BALB/c mouse assessed as increase in proportion of CD4+ T cells in spleen at 2 mg/kg,ip every other day for 14 days by flow cytometry. As to conditions: time 14.0 day. The format is functional, organism-based.
Data set [17] deals with 4T1. The experiment in a line: Antitumor immunity against mouse 4T1 cells implanted in BALB/c mouse assessed as increase in proportion of CD8+ T cells in spleen at 2 mg/kg,ip every other day for 14 days by flow cytometry. The format is functional, organism-based. As to conditions: time 14.0 day.
Data set [18] deals with 4T1. Put plainly: Antitumor immunity against mouse 4T1 cells implanted in BALB/c mouse assessed as increase in proportion of CD4+ T cells in tumor at 2 mg/kg,ip every other day for 14 days by flow cytometry. The format is functional, organism-based. As to conditions: time 14.0 day.
The test system of data set [19] is 4T1. Put plainly: Antitumor immunity against mouse 4T1 cells implanted in BALB/c mouse assessed as increase in proportion of CD8+ T cells in tumor at 2 mg/kg,ip every other day for 14 days by flow cytometry. As to conditions: time 14.0 day. It counts as functional, organism-based.
For data set [20], the system named is 4T1. Put plainly: Antitumor immunity against mouse 4T1 cells implanted in BALB/c mouse assessed as increase in proportion of CD4+ T cells in tumor at 2 mg/kg,ip every other day for 14 days by immunohistochemistry staining based analysis. The format is functional, organism-based. Conditions: time 14.0 day.
The subject of data set [21] is 4T1. The experiment in a line: Antitumor immunity against mouse 4T1 cells implanted in BALB/c mouse assessed as increase in proportion of CD8+ T cells in tumor at 2 mg/kg,ip every other day for 14 days by immunohistochemistry staining based analysis. It counts as functional, organism-based. As to conditions: time 14.0 day.
Data set [22] deals with 4T1. The experiment in a line: Antitumor immunity against mouse 4T1 cells implanted in BALB/c mouse assessed as increase in serum IL-6 level at 2 mg/kg,ip every other day for 14 days by ELISA. The format is functional, organism-based. Conditions: time 14.0 day.
Data set [23] has as its system 4T1. The experiment in a line: Antitumor immunity against mouse 4T1 cells implanted in BALB/c mouse assessed as increase in serum TNF-alpha level at 2 mg/kg,ip every other day for 14 days by ELISA. The format is functional, organism-based. As to conditions: time 14.0 day.

By ΔTm is commonly meant the shift of the melting midpoint relative to a reference. In general, IC50 refers to the concentration that gives 50% inhibition. A high value points to lower potency.

The source made the active and inactive calls. The calls are words filed in the database; no cut-off is given here.

Turning to `CN(CCO)c1ccc(-c2nc3ccc(C(F)(F)F)cc3nc2-c2ccc(N(C)CCO)cc2)cc1`, the ΔTm in data set [1] came to 0.5 °C. Moreover, in [2], half-maximal inhibition (IC50 at 24 h) was put at 20.5 µM. Further, the IC50 in data set [3] was > 40 µM; in data set [4], > 40 µM; in [5], > 40 µM; in data set [6], 19.3 µM.

As for `COc1ccc2nc(-c3ccc(N(C)CCO)cc3)c(-c3ccc(N(C)CCO)cc3)nc2c1`, the ΔTm in data set [1] stood at 0.1 °C. The molecule also displayed an IC50 at 24 h in data set [2] of 24.1 µM. The 50% inhibitory concentration (IC50) in [3], in [4], in data set [5] and in data set [6] was > 40 µM in each case.

On to `CN(C)CCN(C)c1ccc(-c2nc3cc4ccccc4cc3nc2-c2ccc(N(C)CCN(C)C)cc2)cc1`, for which the ΔTm in [1] was 7.9 °C. Besides, the IC50 at 24 h in data set [2] is 1.3 µM. For the same molecule, the IC50 in [3] came to 1.4 µM; in data set [4], 2.9 µM; in [5], 1.9 µM; in data set [6] it was 1.5 µM.

Turning to `CN(CCO)c1ccc(-c2nc3ccc(F)cc3nc2-c2ccc(N(C)CCO)cc2)cc1`, the ΔTm in [1] was 0.4 °C. The molecule further showed an IC50 at 24 h in data set [2] of 18 µM. In addition, the half-maximal inhibitory concentration (IC50) in data set [3] was 33.2 µM; in data set [4] it was 31.6 µM; in [5] it was > 40 µM; in data set [6] it was > 40 µM.

Turning to `CN(C)CCN1CCN(c2ccc(-c3nc4ccc(F)cc4nc3-c3ccc(N4CCN(CCN(C)C)CC4)cc3)cc2)CC1`, the ΔTm in [1] is 8.3 °C. The same molecule displayed an IC50 at 24 h in data set [2] of 2.7 µM. Further, the IC50 was determined as 2.9 µM in [3], 2.3 µM in data set [4], 6.1 µM in [5] and 3.6 µM in data set [6].

On to `CN(C)CCN1CCN(c2ccc(-c3nc4cc5ccccc5cc4nc3-c3ccc(N4CCN(CCN(C)C)CC4)cc3)cc2)CC1`, for which the ΔTm in data set [1] came out at 5.7 °C. This molecule had an IC50 at 24 h in data set [2] of 3.7 µM. Also, the IC50 worked out at 5.2 µM in data set [3], 4 µM in data set [4], 8.4 µM in [5] and 13.3 µM in data set [6].

In the case of `COc1ccc2nc(-c3ccc(N(C)CCN(C)C)cc3)c(-c3ccc(N(C)CCN(C)C)cc3)nc2c1`, the ΔTm in [1] came out at 6.6 °C. Half-maximal inhibition in [2] (IC50 at 24 h) was put at 13.7 µM. The half-maximal inhibitory concentration (IC50) in [3] amounted to 6.2 µM; in [4], 9.4 µM; in data set [5] it was 5.8 µM; in data set [6] it was 8.8 µM.

On to `CN(CCO)c1ccc(-c2nc3cc4ccccc4cc3nc2-c2ccc(N(C)CCO)cc2)cc1`, for which, in data set [1], the ΔTm is 0.9 °C. Besides, in data set [2], the IC50 at 24 h came out at 11.1 µM. In addition, the IC50 in data set [3] is 20.9 µM; in data set [4], 36.4 µM; in [5], > 40 µM; in data set [6] it was > 40 µM.

For the molecule `OCCN1CCN(c2ccc(-c3nc4ccc(F)cc4nc3-c3ccc(N4CCN(CCO)CC4)cc3)cc2)CC1`, the ΔTm in data set [1] was 3.2 °C. This molecule registered an IC50 at 24 h in data set [2] of 6.3 µM. In addition, the IC50 was 1.8 µM in data set [3], 12.9 µM in data set [4], 10.5 µM in data set [5] and 4.5 µM in data set [6].

For the molecule `COc1ccc2nc(-c3ccc(N4CCN(CCO)CC4)cc3)c(-c3ccc(N4CCN(CCO)CC4)cc3)nc2c1`, in [1], the ΔTm is 4.1 °C. For the same molecule, in [2], the IC50 at 24 h was 6.7 µM. The IC50 in data set [3] was 1.3 µM; in data set [4], 22.1 µM; in [5], 15.9 µM; in data set [6], 8 µM.

Regarding `COc1cccc2c1C(=O)c1c(O)c3c(c(O)c1C2=O)C[C@@](O)(C(=O)CO)C[C@@H]3O[C@H]1C[C@H](N)[C@H](O)[C@H](C)O1` [DOXORUBICIN], the Activity in data set [7] is given as 81.5%; in [9], “Toxic”; in [10], “Toxic”; in data set [11], “Toxic”; in [12], “Toxic”; in [13], “Toxic”. In addition, in data set [14], the Activity result is recorded as “Toxic”. For the same molecule, the outcome in [8], in data set [15], in [16], in data set [17], in [18] and in [19] was Active. Moreover, the result in data set [20], in data set [21], in [22] and in data set [23] was Active.

As for `CN(C)CCN1CCN(c2ccc(-c3nc4ccc(C(F)(F)F)cc4nc3-c3ccc(N4CCN(CCN(C)C)CC4)cc3)cc2)CC1`, the ΔTm in [1] is 6.6 °C. In data set [2], the IC50 at 24 h was 1.5 µM. Further, the IC50 in data set [3] amounted to 2 µM; in data set [4], 1.7 µM; in data set [5], 4.3 µM; in data set [6], 3.5 µM.

Consider `OCCN1CCN(c2ccc(-c3nc4cc5ccccc5cc4nc3-c3ccc(N4CCN(CCO)CC4)cc3)cc2)CC1`, for which, in data set [1], the ΔTm was 1.9 °C. This molecule gave an IC50 at 24 h in data set [2] of 2.8 µM. In addition, the IC50 turned out to be 2.5 µM in data set [3], 4.9 µM in [4], 18.4 µM in [5] and 6.6 µM in data set [6].

On to `COc1ccc2nc(-c3ccc(N4CCN(CCN(C)C)CC4)cc3)c(-c3ccc(N4CCN(CCN(C)C)CC4)cc3)nc2c1`, for which, in data set [1], the ΔTm stood at 5.6 °C. The midpoint of inhibition in data set [2], the IC50 at 24 h, lay at 3.4 µM. Besides, the IC50 in [3] turned out to be 2.3 µM; in data set [4], 5.3 µM; in [5], 9.5 µM; in data set [6] it was 6.9 µM.

On to `CN(C)CCN(C)c1ccc(-c2nc3ccc(F)cc3nc2-c2ccc(N(C)CCN(C)C)cc2)cc1`, for which, in data set [1], the ΔTm is 6 °C. In data set [2], this molecule yielded an IC50 at 24 h of 8.8 µM. Further, the IC50 was 3.1 µM in data set [3], 5.6 µM in data set [4], 4.2 µM in [5] and 3.1 µM in data set [6].

For `OCCN1CCN(c2ccc(-c3nc4ccc(C(F)(F)F)cc4nc3-c3ccc(N4CCN(CCO)CC4)cc3)cc2)CC1`, the ΔTm in data set [1] stood at 1.5 °C. Moreover, inhibition in [2] was half-maximal at 4.1 µM (IC50 at 24 h). Also, the IC50 was 2 µM in [3], 4.3 µM in data set [4], 6.3 µM in data set [5] and 3.7 µM in [6].

The values above are taken from ChEMBL document CHEMBL5550165, “Novel quinoxaline analogs as telomeric G-quadruplex ligands exert antitumor effects related to enhanced immunomodulation” (Eur J Med Chem, 2024).
